Legend:
[1] = immunosuppression; cited from earlier work
[2] = cited from earlier work
[3] = In-vitro stability of tacrolimus in rat intestinal juice (pH 6.5); type: in vitro ADME
Experimental: The following solutions were added sequentially to a test tube: 300 μl of freshly thawed intestinal juice, 60 μl of 0.6 M phosphate buffer, pH 6.5 (the pH of the mixture of intestinal juice) and 25 μg/ml of tacrolimus in various formulations (up to 1.5 ml). The mixtures were stirred and incubated at 37° C. over time. At given time intervals of 5, 10, 20, 30, 45, 60, 90 and 120 min, the samples were withdrawn from the incubation, mixed with 150 μl of 0.5 M hydrochloric acid and 2 ml of ethyl acetate. The resulting mixtures were stirred vigorously and centrifuged at 4000 rpm (equivalent to 3000 g) over 10 min. The extraction of tacrolimus by ethyl acetate was repeated three times to ensure total removal of the drug from the mixtures. The different ethyl acetate layers (upper layers) were transferred to clean tubes and evaporated under nitrogen to dryness. The combined residues were dissolved in 1 ml of acetonitrile, and 50 μl were injected in the HPLC under the following conditions: Mobile phase Acetonitrile 100%, Flow rate 0.5 ml/min, Wavelength—213 nm, Column—LiChrospher® 100 RP-18 (5 μm), 4/120 mm.

P-gp = assay: Caco-2 uptake study (apparent permeability); type: in vitro ADME; details: human; Caco-2, 25 μg/ml tacrolimus, Hanks buffer pH 7.4, 60 min, without verapamil
Experimental: Caco-2 monolayers (passage 73) were grown in Dulbecco's modified Eagle's medium supplemented with 10% fetal bovine serum, 1% L-glutamine, 1% nonessential amino acids, and 5% antibiotic-antimycotic solution at 37° C. in humidified air, 5% CO2 atmosphere. The culture medium was first replaced after 72 h and every 48 h thereafter. The uptake studies were conducted with monolayers between 8 to 10 days in culture. All diffusion experiments were performed over 1 h at 37° C. Prior to the experiments, the culture medium was replaced with transport medium and cell monolayers were subsequently equilibrated for 30 min at 37° C. before the uptake study. Transport medium was Hanks buffer composed of 136.89 mM NaCl, 5.36 mM KCl, 0.34 mM Na2HPO4, 0.44 mM KH2PO4, 0.41 mM MgSO4 7H2O, 19.45 mM glucose, 1.26 mM CaCl2, 0.49 mM MgCl2.6H2O, 4.17 mM NaHCO3, 10 mM HEPES, and the pH was adjusted to 7.4. […] The lysate was collected in clean tube and tacrolimus was determined by HPLC as described above. […]
The apparent permeability (Papp, cm/s) was calculated according to the following equation described by Schrickx and Fink-Gremmels (J. Schrickx and J. Fink-Gremmels. P-glycoprotein-mediated transport of oxytetracycline in the Caco-2 cell model. J. Vet Pharmacol. Therap. 30: 25-31 (2007).

In the case of `C=CC[C@@H]1/C=C(\C)C[C@H](C)C[C@H](OC)[C@H]2O[C@@](O)(C(=O)C(=O)N3CCCC[C@H]3C(=O)O[C@H](/C(C)=C/[C@@H]3CC[C@@H](O)[C@H](OC)C3)[C@H](C)[C@@H](O)CC1=O)[C@H](C)C[C@@H]2OC` [tacrolimus], the “potency relative to cyclosporine” value [1] is listed as 10-100 times, the oral bioavailability ([2]; in vivo, po) is listed as 10-25% and the “dose excreted unchanged in the urine” value ([2]; in vivo) is listed as “Less than 1%”. For the same compound, the “drug bound by erythrocytes” value ([2]; in vivo) was 75-80%, the “whole blood concentrations relative to plasma concentrations” value ([2]; in vivo) was 10- to 30 times and the elimination half-life ([2]; liver transplant patients) was “about 12 hours”. The “tacrolimus stability incubated only with PBS (Control (−))” value ([3]; PBS pH 6.5, no intestinal juice, 120 min incubation) was “remained intact”, the “initial tacrolimus concentration decomposed / reduced” value ([3]; intestinal juice with PBS pH 6.5, 37° C., 25 μg/ml tacrolimus, up to 120 min) was “at least 50%” and the Papp at 60 min, 25 μg/ml (P-gp) was 2.05 ± 0.26 ×10⁻⁶ cm/s.
